# In patent US20240389528A1, “PERFORMANCE GAIN IN ALS INHIBITOR HERBICIDE TOLERANT BETA VULGARIS PLANTS BY COMBINATION OF BEST FITTING ALS LARGE AND SMALL SUBUNITS” (BAYER AKTIENGESELLSCHAFT, priority 2021, published 2024):
# System: B. vulgaris plants comprising the BvALS_W569L allele
# Experiment: Sensitivity of Beta vulgaris plants to ALS inhibitor herbicide (BvALS_W569L allele vs wild type allele)
# Format: in vivo
structure (smiles),measurement,value
COc1cc(OC)nc(NC(=O)NS(=O)(=O)c2cc(NC=O)ccc2C(=O)N(C)C)n1 [foramsulfuron],times less sensitive to the ALS inhibitor herbicide compared to B. vulgaris plants comprising a BvALS wild type allele,at least 2000 times
